Experimental data taken from publication PMC11618052, “Design, synthesis, and antiproliferative activity of new 1,2,3-triazole/quinazoline-4-one hybrids as dual EGFR/BRAF^V600E inhibitors” (RSC Advances, 2024).

How the values were obtained:
A-549 cells [1] = experiment: Cell cycle analysis by flow cytometry in A-549; assay type: cell-based, human; conditions: A-549, IC50 concentration of 8g, 24 hours
Source text: (§1) The impact of compound 8g on cell cycle progression and apoptosis induction was examined in A-549 cells. […] We stained the cell line with PI/annexin V and performed flow cytometry using a BD FACS Caliber.[41] Refer to Appendix A ^† for more details.
The effects of 8g on cell cycle progression and apoptosis induction in A-549 cells were examined. […] We stained the cell line with PI/annexin V and performed flow cytometry using a BD FACS Caliber.[41] […] This means a cell cycle arrest at the G1 transition.

A-549 cells [2] = experiment: Apoptosis induction assay, annexin V/PI, in A-549; assay type: cell-based, human; conditions: A-549, annexin V/PI, 24 hours
Method: as §1
A-549 cells was stained with annexin V/PI, cultured for 24 hours, and analyzed them to examine 8g's capacity to cause apoptosis.
Avoid direct exposure to intense light. The point, at which the substrate reaction is stopped, is often determined by the ELISA reader. Many ELISA readers record absorbance only up to 2.0
O.D. Therefore, the color development within individual microwells must be watched by the person running the assay and the substrate reaction stopped before positive wells are no longer properly detectable. […] Results must be read immediately after the Stop Solution is added or within one hour if the microwell strips are stored at 2 - 8°C in the dark. Read absorbance of each microwell on a spectrophotometer using 450 nm as the primary wavelength. […]
Apoptosis was determined by flow cytometry based on the Annexin-V-fluoresce in isothiocyanate (FITC) and propidium iodide (PI) staining kit (BD Pharmingen, San Diego, USA).
(FITC) and propidium iodide (PI) staining kit (BD Pharmingen, San Diego, USA). […] Subsequently, cells were analyzed by flow cytometry (Becton Dickinson, Franklin Lakes, and USA).

colon cancer (HT-29) = experiment: Antiproliferative MTT assay, HT-29; assay type: cell-based; conditions: Homo sapiens, HT-29 colon cancer cells, read-out: Antiproliferative activity IC50 ± SEM, HT-29
Method: (§2) The median inhibitory concentration (IC50) and GI50 (mean IC50) for the four cancer cell lines were calculated. Appendix A ^† contains more details. […]

[3] = Cell viability MTT assay on MCF-10A normal cells; assay type: cell-based; conditions: human, MCF-10A normal mammary gland epithelial cells, MCF-10A cells, four days of incubation
Method: The viability of new compounds 8a–t was evaluated using the MCF-10A normal human mammary gland epithelial cell line. The cell viability of compounds 8a–t was examined using the MTT assay[36] after four days of incubation with MCF-10A cells. For more details, see Appendix A (ESI file). ^† […]
We evaluated the viability of new compounds 8a–t using the MCF-10A normal human mammary gland epithelial cell line. The cell viability of compounds 8a–t was examined using the MTT assay[36] after four days of incubation with MCF-10A cells.
4.2. Biological evaluation
4.2.1. Cytotoxic activity using MTT Assay and evaluation of IC 50
MTT assay was carried out to study the effect of compounds on mammary epithelial cells (MCF-10A). The medium in which cells were propagated contained Dulbecco's modified Eagle's medium (DMEM)/ Ham's F-12 medium (1:1) supplemented with epidermal growth factor (20 ng/mL), hydrocortisone (500 ng/mL), insulin (10 μg/mL), 2 mM glutamine and 10% foetal calf serum.
After every 2-3 days, the cells were passaged using trypsin ethylenediamine tetra acetic acid (EDTA). The cells were seeded at a density of 10^4 cells mL-1 in flat-bottomed culture plates containing 96 wells each. After 24 h, medium was removed from the plates and the compounds in (in 0.1% DMSO) were added (in 200 μL medium to yield a final concentration of 0.1% v/v) to the wells of plates. A single compound was designated with four wells followed by incubation of plates for 96h at 37°C. After incubation, medium was removed completely from the plates followed by addition of MTT (0.4 mg/mL in medium) to each well and subsequent incubation of plates for 3h. MTT (along with the medium) was removed and DMSO (150μL) was added to each well of the culture plates, followed by vortexing and subsequent measurement of absorbance (at 540 nm) using microplate reader. The data are shown as percentage inhibition of proliferation in comparison with controls containing 0.1% DMSO. […]

EGFR = molecular target: T1, EGFR (Homo sapiens, UniProt P00533); experiment: EGFR-TK inhibitory assay; assay type: biochemical; conditions: read-out: EGFR inhibition IC50 ± SEM
T1 construct: 645–1186; His6 (N); made in house; host or cells: Sf-9 insect cells (baculovirus; pBlueBacHis2B / pFASTBacHTc)
T1 sequence (P00533 669-1210): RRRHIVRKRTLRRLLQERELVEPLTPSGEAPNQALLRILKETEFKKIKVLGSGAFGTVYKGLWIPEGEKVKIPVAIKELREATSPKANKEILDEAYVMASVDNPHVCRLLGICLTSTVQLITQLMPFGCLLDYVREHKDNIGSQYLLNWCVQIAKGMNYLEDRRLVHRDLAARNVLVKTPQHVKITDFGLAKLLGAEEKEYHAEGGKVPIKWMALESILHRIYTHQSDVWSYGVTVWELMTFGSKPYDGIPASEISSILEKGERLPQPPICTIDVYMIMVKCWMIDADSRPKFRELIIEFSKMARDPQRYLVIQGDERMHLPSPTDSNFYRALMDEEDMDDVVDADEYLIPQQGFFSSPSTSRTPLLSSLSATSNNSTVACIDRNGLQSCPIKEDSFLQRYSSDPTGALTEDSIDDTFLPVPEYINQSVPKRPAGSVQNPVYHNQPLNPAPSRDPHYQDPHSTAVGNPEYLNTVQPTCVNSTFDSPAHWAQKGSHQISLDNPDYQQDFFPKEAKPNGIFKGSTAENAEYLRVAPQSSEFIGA
Method: Sf-9 cells were infected for 72h for protein expression. […]
centrifugation for 20 min.
Histidine-linked proteins were first eluted with 250 and then […]
using wash buffer. Europium-tagged antiphosphotyrosine antibody (75 µL, 400 ng) was added to each well followed by incubation of 1h and then washing of the plates using buffer. The enhancement solution was added to each well and the signal was recorded at excitation and […]
The autophosphorylation percentage inhibition by compounds was calculated using the following equation: […]

[4] = tested on: pancreatic cancer (Panc-1); experiment: Antiproliferative MTT assay, Panc-1; assay type: cell-based; conditions: Homo sapiens, Panc-1 pancreatic cancer cells, read-out: Antiproliferative activity IC50 ± SEM, Panc-1
Method: as §2

BRAF^V600E = BRAF^V600E kinase inhibitory assay
BRAF^V600E, sequence (P28028 whole entry V585E): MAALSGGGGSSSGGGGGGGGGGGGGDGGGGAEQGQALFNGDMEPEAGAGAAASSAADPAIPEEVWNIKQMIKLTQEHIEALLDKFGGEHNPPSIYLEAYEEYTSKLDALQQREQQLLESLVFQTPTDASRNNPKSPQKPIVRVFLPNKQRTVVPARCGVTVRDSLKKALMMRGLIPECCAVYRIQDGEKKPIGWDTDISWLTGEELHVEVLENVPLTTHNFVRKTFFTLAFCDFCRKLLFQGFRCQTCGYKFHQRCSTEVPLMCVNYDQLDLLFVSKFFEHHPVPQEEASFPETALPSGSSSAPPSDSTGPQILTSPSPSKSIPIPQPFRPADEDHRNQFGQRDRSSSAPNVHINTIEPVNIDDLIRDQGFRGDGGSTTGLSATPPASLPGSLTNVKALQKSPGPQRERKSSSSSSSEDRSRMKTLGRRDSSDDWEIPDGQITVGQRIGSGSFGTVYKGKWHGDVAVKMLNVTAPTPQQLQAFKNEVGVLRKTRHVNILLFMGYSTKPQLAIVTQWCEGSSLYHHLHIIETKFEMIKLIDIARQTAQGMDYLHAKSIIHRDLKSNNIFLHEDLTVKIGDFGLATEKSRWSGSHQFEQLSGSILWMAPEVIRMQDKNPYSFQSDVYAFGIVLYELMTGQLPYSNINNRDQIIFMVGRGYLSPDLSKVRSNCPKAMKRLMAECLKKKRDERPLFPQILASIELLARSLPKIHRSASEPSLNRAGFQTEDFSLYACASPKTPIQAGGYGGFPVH
Method: V600E mutant BRAF kinase assay was performed to investigate the activity of tested compounds against BRAF. Mouse full-length GST-tagged BRAFV600E (7.5 ng, Invitrogen, PV3849) was pre-incubated with drug (1 µL) and assay dilution buffer (4 µL) for 60 min at 25 °C. In assay dilution buffer, a solution (5 µL) containing MgCl2 (30 mM), ATP (200 µM), recombinant human full length (200 ng) and N-terminal His-tagged MEK1 (Invitrogen) was added to start the assay, subsequent to incubation for 25 min at 25 °C. The assay was stopped using 5X protein denaturing buffer (LDS) solution (5 µL). To further denature the protein, heat (70° C) was applied for 5 min.
10 µL of each reaction was loaded into the precast plates and electrophoresis was allowed to proceed. After completion of electrophoresis, the front part of the precast gel plate (holding hot ATP) was cut and afterwards cast-off. The dried gel was developed using a phosphor screen. A

IC50 (colon cancer (HT-29))	IC50 (EGFR)	IC50 [4]	IC50 (BRAF^V600E)	Compound	Cells in G0/G1 phase (%DIP G1) (A-549 cells [1])	Necrosis percentage (A-549 cells [2])	viability at 4 days, 50 µM [3]
24 ± 1 nM	68 ± 4 nM	24 ± 1 nM	47 ± 3 nM	COc1ccc(-n2cc(CSc3nc4ccccc4c(=O)n3-c3ccc(C)cc3)nn2)cc1 [Compound 8g, 2-(((1-(4-Methoxyphenyl)-1H-1,2,3-triazol-4-yl)methyl)thio)-3-(p-tolyl)quinazolin-4(3H)-one]	86%	4.39%	88%
27 ± 1 nM	74 ± 5 nM	26 ± 1 nM	55 ± 5 nM	Cc1ccc(-n2cc(CSc3nc4ccccc4c(=O)n3-c3ccc(C)cc3)nn2)cc1 [Compound 8h, 2-(((1-(p-Tolyl)-1H-1,2,3-triazol-4-yl)methyl)thio)-3-(p-tolyl)quinazolin-4(3H)-one]	–	–	92%
